Data as given in ChEMBL document CHEMBL1158934, “Anthelmintic polyfunctional nitrogen-containing terpenoids from marine sponges” (J Nat Prod, 1991).
Active and inactive are the calls of the source. The rule behind the calls is not given here.

Experiments:
Assay type in all cases: functional, organism-based
[1] = test system: Nippostrongylus brasiliensis; test: Antimicrobial activity against Nippostrongylus brasiliensis
[2] = test system: Trichophyton mentagrophytes; test: Antimicrobial activity against Trichophyton mentagrophytes
[3] = test system: Staphylococcus aureus; test: Antimicrobial activity against Staphylococcus aureus
[4] = test system: Candida albicans; test: Antimicrobial activity against Candida albicans

SMILES	Activity [1]	Activity [2]	Activity [3]	Activity [4]
CC1=C[C@H]2[C@@H](CC1)[C@@](C)(N=S)CC[C@H]2C(C)C	inactive	–	–	–
CC1(C)O[C@@](C)([C@H]2CC[C@@](C)(N=C=S)[C@H]3CC[C@@](C)(O)[C@H](NC=O)[C@@H]32)CC[C@@H]1Cl	inactive	–	–	–
[C-]#[N+][C@@H]1[C@H](C(C)C)CC[C@@H](C)[C@@]12C=C(C)CC2	inactive	Active	Active	Active
CC1=CC2=C(C(C)C)CC[C@](C)(N=C=S)[C@@H]2CC1	inactive	–	–	–
[C-]#[N+][C@@H]1[C@H]2[C@H](CC[C@@]1(C)O)C(=C)CC[C@@H]2[C@@]1(C)CC[C@H](Cl)C(C)(C)O1	inactive	–	–	–
[C-]#[N+][C@@H]1[C@H]2[C@H](CC[C@@]1(C)O)[C@](C)(N=C=S)CC[C@@H]2[C@@]1(C)CC[C@H](Cl)C(C)(C)O1	Active	Active	Active	Active
CC1=CC[C@@H](C(C)C)[C@H]2C[C@@](C)(N=C=S)CC[C@@H]12 (relative stereo)	inactive	–	–	–
